This is an account of results in paper PMC8998904, “Identification and New Indication of Melanin-Concentrating Hormone Receptor 1 (MCHR1) Antagonist Derived from Machine Learning and Transcriptome-Based Drug Repositioning Approaches” (International Journal of Molecular Sciences, 2022).

Molecules are shown by their SMILES.

For series [1], the target named is T1, human recombinant MCH-1 receptor (Homo sapiens, UniProt Q99705).
T1 construct: purchased Euroscreen S.A. (PerkinElmer)
The series can be described thus: Time-resolved fluorescence (TRF)-based MCHR1 receptor-binding assay with Eu-MCH. The note with it: for inhibition at 10 µM: TRF MCHR1 binding, read-out: inhibition rate (%) at 10 μM; for IC50: TRF-based binding, 2 nM Eu-MCH. The method, then:
(§1) An in vitro time-resolved fluorescence (TRF)-based binding assay for MCHR1 was performed to identify the MCHR1 antagonist from the 19 predicted compounds selected through in silico screening. […] In addition, a patch clamp assay was performed to measure the cardiotoxicity of the five compounds. […] Consequently, of the five compounds, only KRX-104130 and KRX-104165 overcame cardiotoxicity.
The receptor-binding affinities of the generated 19 compounds were determined by time-resolved fluorescence (TRF)-based receptor-binding assays using europium-labeled MCH (Eu-MCH) in 96-well AcroWell™ plates. The MCH labeled with europium at the N-1 position was supplied by the Wallac Labeling Service (PerkinElmer, Inc., Waltham, MA, USA). The human recombinant MCH-1 receptor membrane preparation (MCH-1/SLC1 membrane) was obtained from Euroscreen S.A. (PerkinElmer). The binding assay buffer contained 25 mM 4-(2-hydroxyethyl)-1-piperazineethanesulfonic acid (HEPES; pH 7.4), 5 mM MgCl2, 1 mM CaCl2, and 0.5% bovine serum albumin. Total binding was determined from the binding reaction in the presence of 2 nM Eu-MCH and 5 μg/unit MCH-1 receptor membrane for 90 min. Nonspecific Eu–MCH binding was defined in the presence of 0.5 µM unlabeled MCH. After incubation for 90 min, the plate was washed three times with 300 µL of ice-cold 25 mM HEPES buffer (pH 7.4) in an automatic vacuum filtration system. The Eu was dissociated from the bound ligand by the addition of 150 µL of DELFIA enhancement solution (Perkin Elmer) and incubated for 10 min with shaking. Fluorescence signals from dissociated Eu were measured using a multilabel reader (Envision, PerkinElmer) with an excitation wavelength (340 nm) and an emission wavelength (615 nm).

The next series addresses T2, hERG channel (Homo sapiens, UniProt Q12809).
T2 construct: host or cells: HEK293
Briefly: Patch clamp assay on HEK293-hERG cells. Type of series: cell-based. How it is done: as §1
Patch clamp assays were performed on HEK293 cells stably expressing the hERG channel (HEK293-hERG cells; Genionics, Switzerland). When the cells were more than 80% confluent, they were freshly dislodged from flasks with 0.05% trypsin–EDTA for 1–2 min, spun down twice at 700× g, suspended into the extracellular solution (in mmol/L at 1.8 × 10^6 per mL: 137 NaCl, 4 KCl, 1 MgCl2, 1.8 CaCl2, 10 HEPES, and 10 glucose, pH 7.4, adjusted with NaOH), and dispensed into a patch clamp plate. The cell density was adjusted to 2–3 × 10^5 cells/mL. After dispensing, the cells were applied to the AutoPatch system (PatchXpress 7000A, Molecular Devices, Sunnyvale, CA, USA). The hERG currents were evoked by two voltage pulses at 3 s interval. The voltage pulse consisted of a 100-ms step to −30 mV, a conditioning prepulse (2 s duration, +25 mV or +45 mV), followed by a test pulse (2 s duration, −30 mV) from a holding potential of −70 mV. After a 3 s interval at −70 mV, a second pulse protocol was applied, consisting of a 100-ms step to −30 mV, a prepulse (2 s duration, +45 mV), followed by a test pulse (2 s duration, −30 mV). Leak currents were linearly subtracted, extrapolating the current elicited by a 100-ms step to −80 mV from a holding potential of −70 mV. The experiment was initiated with a buffer control in the absence of the drug to calculate the IC50. The test compound was applied at low to high concentrations, and the tail current was monitored continuously. The compound effects were tested using six concentrations in three-fold dilutions from 1 to 300 µM.
In general terms: In patch-clamp work, channel activity is measured electrically.

A short description of series [2]: Plasma pharmacokinetic profile in mice (I.V. and P.O.). Particulars: mice, pharmacokinetic study.

T1 sequence (Q99705 whole entry): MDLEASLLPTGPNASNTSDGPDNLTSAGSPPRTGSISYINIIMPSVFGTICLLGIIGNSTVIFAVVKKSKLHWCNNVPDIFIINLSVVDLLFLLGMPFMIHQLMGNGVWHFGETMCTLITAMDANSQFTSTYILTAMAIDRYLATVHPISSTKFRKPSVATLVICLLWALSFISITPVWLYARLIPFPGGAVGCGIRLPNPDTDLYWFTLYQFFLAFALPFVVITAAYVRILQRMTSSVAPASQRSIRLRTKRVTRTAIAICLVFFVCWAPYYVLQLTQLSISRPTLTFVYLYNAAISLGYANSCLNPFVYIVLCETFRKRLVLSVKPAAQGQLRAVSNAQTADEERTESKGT
T2 sequence (Q12809 whole entry): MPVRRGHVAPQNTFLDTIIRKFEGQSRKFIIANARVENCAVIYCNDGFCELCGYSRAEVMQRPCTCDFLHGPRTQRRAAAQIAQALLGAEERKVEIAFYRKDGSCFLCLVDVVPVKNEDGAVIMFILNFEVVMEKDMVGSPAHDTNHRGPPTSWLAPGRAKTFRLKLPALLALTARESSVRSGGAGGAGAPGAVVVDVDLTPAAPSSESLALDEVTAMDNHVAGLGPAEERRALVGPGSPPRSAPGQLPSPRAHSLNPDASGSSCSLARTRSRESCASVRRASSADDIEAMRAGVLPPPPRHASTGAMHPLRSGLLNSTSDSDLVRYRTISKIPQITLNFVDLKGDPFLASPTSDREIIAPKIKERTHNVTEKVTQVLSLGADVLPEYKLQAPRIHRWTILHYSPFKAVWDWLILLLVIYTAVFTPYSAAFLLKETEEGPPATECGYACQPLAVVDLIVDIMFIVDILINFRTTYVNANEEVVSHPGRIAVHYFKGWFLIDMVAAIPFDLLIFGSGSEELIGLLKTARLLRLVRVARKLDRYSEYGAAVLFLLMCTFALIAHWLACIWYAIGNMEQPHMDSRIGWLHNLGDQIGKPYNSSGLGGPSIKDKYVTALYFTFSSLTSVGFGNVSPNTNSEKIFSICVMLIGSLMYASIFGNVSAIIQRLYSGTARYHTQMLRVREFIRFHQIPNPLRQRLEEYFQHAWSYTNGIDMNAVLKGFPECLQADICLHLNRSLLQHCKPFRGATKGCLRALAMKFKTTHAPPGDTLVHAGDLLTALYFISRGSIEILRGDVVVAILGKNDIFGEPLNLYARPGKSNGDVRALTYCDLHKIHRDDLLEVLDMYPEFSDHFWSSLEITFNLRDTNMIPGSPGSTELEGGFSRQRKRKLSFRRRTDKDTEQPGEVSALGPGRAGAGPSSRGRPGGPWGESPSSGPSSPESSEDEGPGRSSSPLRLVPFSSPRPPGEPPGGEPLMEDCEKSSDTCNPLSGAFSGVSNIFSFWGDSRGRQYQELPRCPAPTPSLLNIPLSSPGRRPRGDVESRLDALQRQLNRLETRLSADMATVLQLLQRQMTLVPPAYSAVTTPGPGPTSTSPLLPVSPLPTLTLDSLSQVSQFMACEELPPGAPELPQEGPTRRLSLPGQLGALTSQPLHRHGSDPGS

In general, inhibition refers to the relative decrease from the control value, in per cent. As a reminder, the IC50 is the point on the concentration scale where inhibition reaches its midpoint. For the compound `CCN(CC)CCN(C)c1cnc2cc(NC(=O)c3ccc(-c4ccc(Cl)cc4)cc3)ccc2n1` [KRX-104137], in series [1], the inhibition at 10 µM was determined as 96%. The IC50 in series [1] amounted to 10 nM; against hERG channel, 420 nM.
For `COc1nc2cc(F)c(F)cc2nc1NC(=O)NC1CCN(Cc2ccc3[nH]ccc3c2)CC1` [KRX-104156], in that order: 100%, 50 nM and 920 nM.
For `COc1nc2cc(F)c(F)cc2nc1NC(=O)NC1CCN(Cc2ccc3[nH]ncc3c2)CC1` [KRX-104161], in that order: 94.8%, 10 nM and 180 nM.
As for `COc1nc2cc(F)c(F)cc2nc1NC(=O)NC1CCN(Cc2cn(C(C)=O)c3ccccc23)CC1` [KRX-104165], the “Tolerability / death after administration to mice” value in series [2] is “the mouse died immediately after administration”. In series [1], the inhibition at 10 µM came to 94.3% and the IC50 is 60 nM. For the same compound, on hERG channel, the IC50 was > 50000 nM.
